Laboratory results reported in ChEMBL document CHEMBL2010659, “Synthesis of novel long wavelength cationic chlorins via stereoselective aldol-like condensation” (Bioorg Med Chem Lett, 2012).
pIC50: −log10 of the molar value. Active and inactive are the calls of the source. No cut-off for these calls is given here.

Legend:
Type in all cases: functional, cell-based
HeLa [1] = assay: Cytotoxicity against human HeLa cells up to 10 uM after 12 hrs by WST-8 assay
HeLa [2] = assay: Cytotoxicity against human HeLa cells of light exposed compound up to 10 uM after 12 hrs by WST-8 assay
HeLa [3] = assay: Cytotoxicity against human HeLa cells of light exposed compound after 12 hrs by WST-8 assay

Row | SMILES | Activity (HeLa [1]) | Activity (HeLa [2]) | Activity (HeLa [3]) | pIC50 (HeLa [3])
1 | CCC1=C(C)c2cc3[nH]c(cc4nc(c5c6[nH]c(cc1n2)c(C)c6C(=O)C5)[C@@H](CCC(=O)OC)[C@@H]4C)c(C)c3/C=C/c1cc[n+](C)cc1 | inactive | Active | Dose-dependent effect | 5.10
2 | CCC1=C(C)c2cc3[nH]c(cc4nc(c5c6[nH]c(cc1n2)c(C)c6C(=O)C5)[C@@H](CCC(=O)OC)[C@@H]4C)c(C)c3/C=C/c1ccc2ccccc2[n+]1C | inactive | Active | Dose-dependent effect | 5.27
3 | C=Cc1c(C)c2cc3nc(c4c5[nH]c(cc6nc(cc1[nH]2)C(C)=C6CC)c(C)c5C(=O)C4)[C@@H](CCC(=O)OC)[C@@H]3C [METHYL PYROPHEOPHORBIDE A] | inactive | Active | Dose-dependent effect | 6.55
4 | CCC1=C(C)c2cc3[nH]c(cc4nc(c5c6[nH]c(cc1n2)c(C)c6C(=O)N(OC)C5=O)[C@@H](CCC(=O)OC)[C@@H]4C)c(C)c3/C=C/c1cccc[n+]1C | inactive | Active | Dose-dependent effect | 6.96
5 | CCC1=C(C)c2cc3[nH]c(cc4nc(c5c6[nH]c(cc1n2)c(C)c6C(=O)N(OC)C5=O)[C@@H](CCC(=O)OC)[C@@H]4C)c(C)c3/C=C/c1ccc2ccccc2[n+]1C | inactive | Active | Dose-dependent effect | 6.01
6 | C=Cc1c(C)c2cc3nc(c4c5[nH]c(cc6nc(cc1[nH]2)C(C)=C6CC)c(C)c5C(=O)N(OC)C4=O)[C@@H](CCC(=O)OC)[C@@H]3C | inactive | Active | Dose-dependent effect | 5.57
